Measured values: US7094869B2, “Low molecular weight peptidomimetic growth hormone secretagogues” (Genentech, Inc., priority 1994, dated 2006)
Entries after “also recorded” stand apart in the source; their conditions may differ.

What was measured:
FSH = FSH release from pituitary cells (RIA); assay type: cell-based, rat; settings: 100 nM; listed as (inip)-bbFK-NH2
Description: Dispersion: Adult female Sprague-Dawley (160-180 g., Charles River) rats were group-caged in a 12:12 light:dark cycle with food and water available ad libitum. Pituitaries from ten rats were removed, the posterior pituitary discarded and the anterior pituitary placed in Hanks' Balanced Salt Solution (HBSS: without calcium chloride, w/o magnesium chloride, w/o magnesium sulfate; Gibco) containing 20 mM HEPES (Gibco) and 100 U/ml penicillin streptomycin (PS: JRH Biosciences). Under sterile conditions, pituitaries were rinsed twice then minced into small fragments with a razor blade. Fragments were resuspended in 5 ml of HBSS/HEPES containing 20 mg collagenase (Serva 17449) and […] of 1 mg/ml DNase (Sigma) for a 40 min. incubation in a 37° C. gyrotory water bath shaker (New Brunswick Scientific Model G76; setting 10). […] The cells were centrifuged 1000× g for 5 min, resuspended, counted and plated at a final cell concentration of 100,000 cells/ml. […] STATISTICS: The mean for each group was determined and analyzed by one-way analysis of variance with a post-hoc Student-Newman-Keuls. […] The EC50 was calculated using a 4-parameter curve-fit program (Kaleidagraph). […] RIA of pituitary hormones: LH, FSH, TSH, and Prolactin were determined with commercially available kits from Amersham, and ACTH levels were determined by a RIA kit from ICN. […]

[1] = Combination GHRP and IGF-1 treatment of obese Zucker Diabetic Fatty (ZDF) rats; assay type: in vivo, rat
Description: Ten lean ZDF rats served as an additional control group.
This GHRP was given by sc. injection twice daily, each dose of 100 μl therefore containing 50 μg/injection or 100 μg/day.
Recombinant human IGF-1 (rhIGF-1) at 13.8 mg/ml in acetate buffer was loaded into osmotic minipumps (Alza, Palo Alto, model 2ML4, pump rate 2.29 μl/hr for 28 days, fill volume 2064 μl). Other pumps were filled with acetate buffer. […] The delivered dose of rhIGF-1 was therefore 758 μg/day. Recombinant human growth hormone (rhGH, Lot R9092AX, Genentech Inc.) was diluted in sterile water to 2.5 g/l and a 100 μl injection given twice daily (250 μg/injection, or 500 μg/day).
The next day the osmotic pumps were inserted into rats. […] All rats not receiving rhIGF-1 containing pumps were implanted with pumps delivering the acetate buffer excipient.
On day 24 blood was withdrawn after a 4 hour fast and 1.5 U/kg of regular insulin was injected i.p. and a second blood sample taken 30 minutes later. The rats were then sacrificed using carbon dioxide, bled from the heart, and organs taken. Serum glucose was measured by standard automated procedures.
Data are presented as mean±standard error (SE) of the mean with 8 rats per group.

Q: Which FSH release (FSH) does the source give for `NCCCC[C@H](NC(=O)[C@H](Cc1ccccc1)NC(=O)[C@@H](Cc1ccc2ccccc2c1)NC(=O)[C@@H](Cc1ccc2ccccc2c1)NC(=O)C1CCNCC1)C(N)=O` [(inip) b b F K amide, (inip)-DβNal-DβNal-Phe-Lys-amide] here?
A: had no effect on these hormone concentrations; also recorded: unchanged

Q: What about the body weight gain ([1]; Day 2, obese ZDF male rats, GHRP 100 μg/d sc injection, rhIGF-1 758 μg/d pump, rhGH 500 μg/d) of the same molecule?
A: 18.3 ± 1.0 g

Q: And the “effect on insulin sensitivity (diabetogenic effect)” value ([1]; rat, in vivo)?
A: greatly reduced effect on insulin sensitivity (diabetogenic effect) than rhGH

Q: What about the fasting blood glucose ([1]; rat, in vivo) of the same molecule?
A: 386±63 mg %

Q: What about the serum insulin ([1]; rat, in vivo) of the same molecule?
A: 39 ± 6 ng/mL
